Patent publication EP2071024A1, “Peptides of human prostatic acid phosphatase enhancing viral infectivity” (Pharis Biotec GmbH, priority 2007, dated 2009)
Ends that are not written are not given here.

System: peripheral blood mononuclear cells (PBMC)
Test: MTT cytotoxicity assay
Type: cell-based
Conditions: stimulated PBMC, incubated for 3 days, high concentrations, listed as monomeric PAP85-120
Method: To determine possible cytotoxic effects of PAP85-120 fibrils, serial dilutions of fibrils were added to stimulated peripheral blood mononuclear cells (PBMC) and incubated for 3 days (see example 8). Thereafter 10 µl of a 5 mg/ml MTT (Sigma; # M2128) solution was added and cells were incubated for 4 h at 37°C. In living cells mitochondrial dehydrogenases […] the yellow MTT salt to blue formazan crystals (Schiff et al.; 1985). After dissolving the crystals in 1:1 Ethanol/DMSO, samples containing living cells appear blue whereas samples from dead cells are clear. Optical density (OD) was measured at 560/650 nm using a photometer (Molecular Devices).
Fig. 5: PAP85 is non cytotoxic. Peripheral blood mononuclear cells (PBMC) were stimulated with phytohemagglutinine (2 µg/ml) and Interleukin 2 (10 µg/ml) for three days. Thereafter cells were sown out in 96 well dishes containing the indicated concentrations of freshly dissolved monomeric PAP85 or fibrillar PAP85 and incubated for 3 days. Cytotoxicity was determined by detecting dehydrogenase activity in living cells using the MTT assay. Values represent average values +/- SD derived from triplicates.

Sequence: IRKRYRKFLNESYKHEQVYIRSTDVDRTLMSAMTNL [freshly dissolved PAP85-120]
- cell viability / cytotoxic effects: do not exert cytotoxic effects
